One block for each compound: values may come before it.
Legend:
[1] = system: clots induced in rat inferior vena cava; assay: Incorporation into clots induced in a rat model (rat inferior vena cava model); type: in vivo; conditions: rat IVC model; for Clot/Blood / Clot/Heart / Clot/Liver / Clot/Lung: 60 min; for % ID/g (clot uptake) / Relative conc (cpm/g of clot by dose/g animal): compound injected 5 min post-induction, clot removed after 60 min
Experimental: The rats (Male Wistar, 250-350 g) were anaesthetised with 15% urethane. After laparotomy, the vena cava was isolated and freed of surrounding fat tissue. […] The average weight of the clots formed in this model was around 27 mg, n=32, (5-50 mg range). The so compounds were injected 5 min post-induction. After 60 min the animals were sacrificed and the clot removed, weighed and counted. Other tissues e.g. blood, lung, heart, were also dissected and counted. The uptake of tracer into the clot was determined as the relative concentration (cpm/g of clot by dose/g animal ) and clot to background tissue.

human plasma clots [2] = assay: Incorporation into human plasma clots (in vitro plasma clot assay); type: biochemical; conditions: control vials without thrombin and calcium chloride, 60 minutes
Experimental: (§1) Incorporation of radiolabelled substrates into fibrin was investigated by induction of an in vitro human plasma clot in the following manner. To a siliconised 5 ml glass vial was added, (a) 800 μl of Tris(hydroxymethyl)aminomethane buffered saline pH 7.5 containing calcium chloride (50 mM Tris, 150 mM sodium chloride, 4 mM calcium chloride.), (b) 40 μl of physiological salt solution containing 100 units of thrombin per ml, (c) 400 μl of human plasma containing the radiolabelled substrate at a concentration of typically 10 kBq/ml. To aid induction of clot a roughened glass rod was added to the reaction vial. Control vials were prepared similarly but with the omission of thrombin and calcium chloride.
(§2) The proportion of total radioactivity was calculated by counting in suitable detection apparatus.
(§3) The fraction of radioactivity retained on the filter, after subtraction of the non-specific binding determined from the control, is a measure of incorporation into the filtered clots.

human plasma clots [3] = target: T1, human plasma clots (Homo sapiens, UniProt P00488); assay: as above; type: biochemical; conditions: for % specific uptake*: % retained with thrombin − % retained no thrombin; for % retained in plasma clot assay (with thrombin): human plasma with thrombin and calcium chloride, 60 minutes, ca. 20° C.
T1 construct: Factor XIII is transformed into its active form Factor XIIIa by thrombin in the presence of calcium ions; from tissue; host or cells: human plasma, clotted in vitro with thrombin and calcium chloride
T1 sequence (P00488 39-732): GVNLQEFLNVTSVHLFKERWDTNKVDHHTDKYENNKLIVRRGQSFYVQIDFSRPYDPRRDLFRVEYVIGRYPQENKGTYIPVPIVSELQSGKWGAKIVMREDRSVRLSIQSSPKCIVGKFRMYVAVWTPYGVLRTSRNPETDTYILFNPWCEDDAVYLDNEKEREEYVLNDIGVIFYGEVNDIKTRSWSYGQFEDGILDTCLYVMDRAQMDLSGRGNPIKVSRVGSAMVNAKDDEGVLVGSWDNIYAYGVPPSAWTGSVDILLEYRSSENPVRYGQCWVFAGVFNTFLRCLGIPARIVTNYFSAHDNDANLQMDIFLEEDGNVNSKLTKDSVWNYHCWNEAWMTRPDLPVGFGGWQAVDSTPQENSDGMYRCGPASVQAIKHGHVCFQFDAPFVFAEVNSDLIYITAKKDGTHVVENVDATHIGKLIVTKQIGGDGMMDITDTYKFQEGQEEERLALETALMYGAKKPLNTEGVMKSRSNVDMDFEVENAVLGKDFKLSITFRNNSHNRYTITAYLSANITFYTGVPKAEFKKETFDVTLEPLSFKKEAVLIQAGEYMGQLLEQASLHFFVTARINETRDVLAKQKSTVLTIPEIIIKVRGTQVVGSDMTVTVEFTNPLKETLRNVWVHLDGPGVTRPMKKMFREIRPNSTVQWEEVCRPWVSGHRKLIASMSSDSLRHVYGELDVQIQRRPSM
Experimental: as §1, §2, §3

[4] = Normal rat biodistribution; type: in vivo; conditions: i.v., male Wistar rats, Mean±SD n=3
Experimental: The resolution of a clot image is dependant on the combination of rate of incorporation of the radiopharmaceutical and its blood/tissues clearance rate. For this reason the biodistribution of several compounds has been determined in rats. Male Wistar (100-150 g) rats were injected i.v. with 0.1-0.2 ml of radiolabelled tracer solution (8 MBq/ml) and dissected at different times post-injection. The % ID in each of the selected tissues was measured. Some animals were kept in metabolism cages to be able to determine the % ID excreted in urine and faeces. The dissection times used for the majority of the agents was 2, 15, 30, 60, 240 min. Data are shown as % ID, Mean±SD, (n=3).

Factor XIIIa = target: T2, Factor XIIIa (Homo sapiens, UniProt P00488); assay: Factor XIIIa dependency of incorporation (dimethylcasein uptake, normal vs Factor XIII deficient plasma); type: biochemical; conditions: 1 KBq/ml, 60 minutes; uptake in normal plasma minus Factor XIII deficient plasma
T2 construct: Factor XIII is transformed into its active form Factor XIIIa by thrombin in the presence of calcium ions; from tissue; host or cells: human plasma
T2 sequence (P00488 39-732 limits assumed): T1 sequence (P00488 39-732)
Experimental: The assay was changed by replacing the mercaptoethanol with aprotinin at a final concentration of 2 μg/ml, and dimethylcasein (DMC) was used instead of casein.

% specific uptake* (human plasma clots [3]): 18.4%
% retained in plasma clot assay (with thrombin) (human plasma clots [3]): 23%
% ID Blood ([4]; 2 min post-injection): 22.59 ± 1.44 % ID
% ID GI Tract ([4]; 2 min post-injection): 9.75 ± 1.2 % ID
% ID Heart ([4]; 2 min post-injection): 0.63 ± 0.17 % ID
% ID Kidney ([4]; 2 min post-injection): 4.56 ± 0.29 % ID
% ID Liver ([4]; 2 min post-injection): 19.6 ± 2.16 % ID
% ID Lung ([4]; 2 min post-injection): 1.61 ± 0.06 % ID
% ID Muscle ([4]; 2 min post-injection): 21.6 ± 2.08 % ID
% ID Urine ([4]; 2 min post-injection): 0.13 ± 0.06 % ID
% ID Blood ([4]; 15 min post-injection): 1.22 ± 0.06 % ID
% ID GI Tract ([4]; 15 min post-injection): 70.9 ± 1.3 % ID
% ID Heart ([4]; 15 min post-injection): 0.06 ± 0.04 % ID
% ID Kidney ([4]; 15 min post-injection): 1.9 ± 0.95 % ID
% ID Liver ([4]; 15 min post-injection): 10.0 ± 0.86 % ID
% ID Lung ([4]; 15 min post-injection): 0.21 ± 0.03 % ID
% ID Muscle ([4]; 15 min post-injection): 3.97 ± 0.56 % ID
% ID Urine ([4]; 15 min post-injection): 6.23 ± 1.23 % ID
% ID Blood ([4]; 30 min post-injection): 0.55 ± 0.19 % ID
% ID GI Tract ([4]; 30 min post-injection): 80.7 ± 2.4 % ID
% ID Kidney ([4]; 30 min post-injection): 1.8 ± 0.42 % ID
% ID Liver ([4]; 30 min post-injection): 4.53 ± 0.5 % ID
% ID Lung ([4]; 30 min post-injection): 0.1 ± 0.04 % ID
% ID Muscle ([4]; 30 min post-injection): 1.6 ± 0.82 % ID
% ID Urine ([4]; 30 min post-injection): 7.18 ± 1.24 % ID
% ID Blood ([4]; 60 min post-injection): 0.39 ± 0.05 % ID
% ID GI Tract ([4]; 60 min post-injection): 85.4 ± 0.12 % ID
% ID Heart ([4]; 60 min post-injection): 0.03 ± 0.01 % ID
% ID Kidney ([4]; 60 min post-injection): 1.06 ± 0.22 % ID
% ID Liver ([4]; 60 min post-injection): 2.63 ± 0.38 % ID
% ID Lung ([4]; 60 min post-injection): 0.08 ± 0.01 % ID
% ID Muscle ([4]; 60 min post-injection): 1.22 ± 0.28 % ID
% ID Urine ([4]; 60 min post-injection): 7.71 ± 0.49 % ID
% ID Blood ([4]; 240 min post-injection): 0.1 ± 0.02 % ID
% ID GI Tract ([4]; 240 min post-injection): 87.5 ± 2.8 % ID
% ID Heart ([4]; 240 min post-injection): 0.01 ± 0.02 % ID
% ID Kidney ([4]; 240 min post-injection): 0.85 ± 0.08 % ID
% ID Liver ([4]; 240 min post-injection): 1.39 ± 0.29 % ID
% ID Lung ([4]; 240 min post-injection): 0.05 ± 0.02 % ID
% ID Muscle ([4]; 240 min post-injection): 0.22 ± 0.31 % ID
% ID Urine ([4]; 240 min post-injection): 8.55 ± 2.76 % ID
% specific DMC casein uptake (Factor XIIIa): 45%
SMILES: CC(=NO)C(C)(C)NCC(C)(CNC(=O)C1CCC(CNC(=O)c2ccc(S(=O)(=O)NCCCCCN)cc2)CC1)CNC(C)(C)C(C)=NO (stereo not shown) [Compound 8, 3,3,6,9,9-pentamethyl-6-N[4-N-{(4-N-(5-aminopentyl)amidosulphonyl)benzoyl}aminomethylcyclohexylcarbonyl]aminomethyl-4,8-diazaundecane-2,10-dione dioxime]
Clot/Blood [1]: 4.1
Clot/Heart [1]: 8.1
Clot/Liver [1]: 0.40
Clot/Lung [1]: 4.4
% ID/g (clot uptake) [1]: 0.17 ± 0.09 % ID/g
Relative conc (cpm/g of clot by dose/g animal) [1]: 0.59 ± 0.31
% retained in plasma clot assay (no thrombin) (human plasma clots [2]): 4.6%

% specific uptake* (human plasma clots [3]): 1.2%
% retained in plasma clot assay (with thrombin) (human plasma clots [3]): 2%
% ID Blood ([4]; 2 min post-injection): 17.8 ± 1.78 % ID
% ID GI Tract ([4]; 2 min post-injection): 6.61 ± 0.43 % ID
% ID Heart ([4]; 2 min post-injection): 0.44 ± 0.09 % ID
% ID Kidney ([4]; 2 min post-injection): 10.55 ± 1.1 % ID
% ID Liver ([4]; 2 min post-injection): 5.61 ± 0.23 % ID
% ID Lung ([4]; 2 min post-injection): 1.53 ± 0.12 % ID
% ID Muscle ([4]; 2 min post-injection): 32.9 ± 0.97 % ID
% ID Urine ([4]; 2 min post-injection): 1.74 ± 1.05 % ID
% ID Blood ([4]; 30 min post-injection): 2.20 ± 0.5 % ID
% ID GI Tract ([4]; 30 min post-injection): 27.3 ± 3.45 % ID
% ID Heart ([4]; 30 min post-injection): 0.06 ± 0.01 % ID
% ID Kidney ([4]; 30 min post-injection): 3.47 ± 0.71 % ID
% ID Liver ([4]; 30 min post-injection): 5.15 ± 0.75 % ID
% ID Lung ([4]; 30 min post-injection): 0.31 ± 0.08 % ID
% ID Muscle ([4]; 30 min post-injection): 4.63 ± 0.25 % ID
% ID Urine ([4]; 30 min post-injection): 48.0 ± 2.22 % ID
% ID Blood ([4]; 60 min post-injection): 0.38 ± 0.14 % ID
% ID GI Tract ([4]; 60 min post-injection): 31.6 ± 6.4 % ID
% ID Heart ([4]; 60 min post-injection): 0.01 ± 0.01 % ID
% ID Kidney ([4]; 60 min post-injection): 1.80 ± 0.65 % ID
% ID Liver ([4]; 60 min post-injection): 3.07 ± 0.47 % ID
% ID Lung ([4]; 60 min post-injection): 0.09 ± 0.03 % ID
% ID Muscle ([4]; 60 min post-injection): 1.51 ± 0.53 % ID
% ID Urine ([4]; 60 min post-injection): 58.2 ± 8.87 % ID
% ID Blood ([4]; 240 min post-injection): 0.04 ± 0.04 % ID
% ID GI Tract ([4]; 240 min post-injection): 36.5 ± 1.5 % ID
% ID Heart ([4]; 240 min post-injection): 0.00 % ID
% ID Kidney ([4]; 240 min post-injection): 1.06 ± 0.06 % ID
% ID Liver ([4]; 240 min post-injection): 2.01 ± 0.11 % ID
% ID Lung ([4]; 240 min post-injection): 0.04 ± 0.00 % ID
% ID Muscle ([4]; 240 min post-injection): 0.55 ± 0.08 % ID
% ID Urine ([4]; 240 min post-injection): 58.9 ± 1.66 % ID
% specific DMC casein uptake (Factor XIIIa): 1%
SMILES: CC(=NO)C(C)(C)NCCN(CCNC(=O)c1ccc(S(=O)(=O)NCCCCCN)cc1)CCNC(C)(C)C(C)=NO [Compound 16, 3,3,11,11-tetramethyl-7-(4-N-(5-aminopentyl)-amidosulphonyl)benzamidoethyl-4,7,10-triazatridecane-2,12-dione dioxime]
Clot/Blood [1]: 1.7
Clot/Heart [1]: 3.8
Clot/Liver [1]: 0.37
Clot/Lung [1]: 2.1
% ID/g (clot uptake) [1]: 0.27 ± 0.06 % ID/g
Relative conc (cpm/g of clot by dose/g animal) [1]: 0.93 ± 0.16
% retained in plasma clot assay (no thrombin) (human plasma clots [2]): 0.8%

Reference: US6897209B2, “Labelled factor XIIIa substrates” (GE Healthcare Limited, priority 1997, dated 2005)
